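How tested: cells in 96-well plates exposed to compound for 48 hours at five concentrations. GI50 is the concentration that inhibits growth by half.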 Active and inactive are the calls of the source. Rule as the data show it: active = GI50 up to about 1.1 µM and inactive = higher.
Assays:
Test in all cases: NCI anticancer screen, dose series, 48 h
HOP-62 = tested on: HOP-62
HCT-15 = tested on: HCT-15
SF-539 = tested on: SF-539
SF-268 = tested on: SF-268
SNB-75 = tested on: SNB-75
SW-620 = tested on: SW-620
RXF 393 = tested on: RXF 393
MOLT-4 = tested on: MOLT-4
Malme-3M = tested on: Malme-3M
RPMI-8226 = tested on: RPMI-8226
A498 = tested on: A498
MDA-MB-435 = tested on: MDA-MB-435
HCT-116 = tested on: HCT-116
OVCAR-3 = tested on: OVCAR-3
UO-31 = tested on: UO-31
HOP-92 = tested on: HOP-92
NCI/ADR-RES = tested on: NCI/ADR-RES
OVCAR-5 = tested on: OVCAR-5
IGROV-1 = tested on: IGROV-1

| Structure (SMILES) | GI50 (HOP-62) | GI50 (HCT-15) [µM] | GI50 (SF-539) | GI50 (SF-268) | GI50 (SNB-75) | GI50 (SW-620) | GI50 (RXF 393) | GI50 (MOLT-4) | GI50 (Malme-3M) | GI50 (RPMI-8226) | GI50 (A498) | GI50 (MDA-MB-435) | GI50 (HCT-116) | GI50 (OVCAR-3) | GI50 (UO-31) | GI50 (HOP-92) | GI50 (NCI/ADR-RES) | GI50 (OVCAR-5) | GI50 (IGROV-1) |
| --- | --- | --- | --- | --- | --- | --- | --- | --- | --- | --- | --- | --- | --- | --- | --- | --- | --- | --- | --- |
| COc1cccc2nc3ccccc3nc12 | > 100 µM (inactive) | 39.1 | 84.5 µM (inactive) | 87.9 µM (inactive) | 60 µM (inactive) | 45.8 µM (inactive) | 39.3 µM (inactive) | 60.8 µM (inactive) | > 100 µM (inactive) | 17 µM (inactive) | 76.9 µM (inactive) | > 100 µM (inactive) | 38.5 µM (inactive) | 91 µM (inactive) | 36 µM (inactive) | 33 µM (inactive) | > 100 µM (inactive) | > 100 µM (inactive) |  |
| C/C(=N\c1cc(Cl)cc(Cl)c1)c1ccncc1 | > 100 µM (inactive) | > 100 | > 100 µM (inactive) | > 100 µM (inactive) | > 100 µM (inactive) | > 100 µM (inactive) | > 100 µM (inactive) | > 100 µM (inactive) | > 100 µM (inactive) | 31 µM (inactive) | > 100 µM (inactive) | > 100 µM (inactive) | > 100 µM (inactive) | > 100 µM (inactive) | 89.7 µM (inactive) | 63.8 µM (inactive) | > 100 µM (inactive) | > 100 µM (inactive) | > 100 µM (inactive) |
| CC1OC(OC2C(O[C@@H]3C[C@@H]4CC[C@@H]5[C@H](CC[C@]6(C)[C@@H]7[C@H](C[C@@H]56)O[C@]5(CC[C@@H](C)CO5)[C@H]7C)[C@@]4(C)C[C@H]3O)OC(CO)C(OC3OC(CO)C(O)C(O)C3O)C2O)C(O)C(O)C1O (some centres undefined) | 1.83 µM (inactive) | 2.17 | 1.77 µM (inactive) | 1.84 µM (inactive) | 2.25 µM (inactive) | 1.67 µM (inactive) | 2.01 µM (inactive) | 1.96 µM (inactive) | 1.29 µM (inactive) | 3.17 µM (inactive) | 1.71 µM (inactive) | 1.78 µM (inactive) | 3.78 µM (inactive) | 1.65 µM (inactive) | 2.12 µM (inactive) | 2.51 µM (inactive) | 1.67 µM (inactive) | 1.59 µM (inactive) | 1.14 µM (inactive) |
| CCOP(=O)(OCC)/C(C#N)=C/c1cccn1C | > 100 µM (inactive) | > 100 | > 100 µM (inactive) | > 100 µM (inactive) | > 100 µM (inactive) | > 100 µM (inactive) | > 100 µM (inactive) | > 100 µM (inactive) | > 100 µM (inactive) | > 100 µM (inactive) | > 100 µM (inactive) | > 100 µM (inactive) | > 100 µM (inactive) | > 100 µM (inactive) | 41.6 µM (inactive) | > 100 µM (inactive) | > 100 µM (inactive) | > 100 µM (inactive) | > 100 µM (inactive) |
| O=C1c2ccccc2C(=O)N1CC1S(=O)(=O)OCCOS1(=O)=O | > 100 µM (inactive) | > 100 | 98.4 µM (inactive) | > 100 µM (inactive) | > 100 µM (inactive) | > 100 µM (inactive) | > 100 µM (inactive) | > 100 µM (inactive) | > 100 µM (inactive) | > 100 µM (inactive) | > 100 µM (inactive) | > 100 µM (inactive) | > 100 µM (inactive) | > 100 µM (inactive) | > 100 µM (inactive) | > 100 µM (inactive) | > 100 µM (inactive) | > 100 µM (inactive) | > 100 µM (inactive) |
| O=C1ON=C2C3CC4CC12CC1(C3)C(=O)ON=C41 | > 100 µM (inactive) |  | > 100 µM (inactive) |  | > 100 µM (inactive) | > 100 µM (inactive) | > 100 µM (inactive) | > 100 µM (inactive) | > 100 µM (inactive) | > 100 µM (inactive) | > 100 µM (inactive) | > 100 µM (inactive) | > 100 µM (inactive) | > 100 µM (inactive) | > 100 µM (inactive) | > 100 µM (inactive) | > 100 µM (inactive) | > 100 µM (inactive) | > 100 µM (inactive) |
| OC(c1cc(C(O)(C(F)(F)F)C(F)(F)F)ncn1)(C(F)(F)F)C(F)(F)F | > 10 µM (inactive) | > 10 | > 10 µM (inactive) | > 10 µM (inactive) | > 10 µM (inactive) | > 10 µM (inactive) | > 10 µM (inactive) | > 10 µM (inactive) | > 10 µM (inactive) | > 10 µM (inactive) | > 10 µM (inactive) | > 10 µM (inactive) | > 10 µM (inactive) | > 10 µM (inactive) | > 10 µM (inactive) | > 10 µM (inactive) | > 10 µM (inactive) |  | > 10 µM (inactive) |
| Nn1c(Sc2nc3ccccc3c(=O)n2N)nc2ccccc2c1=O | 16.6 µM (inactive) | 3.37 | 2.48 µM (inactive) | 8.49 µM (inactive) | 11.6 µM (inactive) | 2.29 µM (inactive) | 7.85 µM (inactive) | 1.63 µM (inactive) | 3.57 µM (inactive) | 3.5 µM (inactive) | 16 µM (inactive) | 6.22 µM (inactive) | 2.99 µM (inactive) | 11.1 µM (inactive) | 1.73 µM (inactive) | 6.92 µM (inactive) | 7.76 µM (inactive) | 16.5 µM (inactive) | 6.5 µM (inactive) |
| N#C/C(=C\c1ccccc1)C(=O)Nc1nnc(-c2ccccc2)o1 | 37.6 µM (inactive) | 26.9 |  | 47.2 µM (inactive) | 48.8 µM (inactive) | 52.7 µM (inactive) | 34 µM (inactive) | 33.1 µM (inactive) | 31 µM (inactive) | 19.2 µM (inactive) | 27.3 µM (inactive) | 37.8 µM (inactive) | 33.3 µM (inactive) | 14.8 µM (inactive) | 29.4 µM (inactive) | 47.9 µM (inactive) | 29.6 µM (inactive) | 82.6 µM (inactive) | 27.6 µM (inactive) |
| CO/N=C(\C)c1cccc(Nc2nc3ccccc3c3occc23)c1 | 15.4 µM (inactive) | 10.4 | 13.6 µM (inactive) | 15.4 µM (inactive) | 15.3 µM (inactive) |  | 12.4 µM (inactive) | 11.2 µM (inactive) | 15.7 µM (inactive) | 12.9 µM (inactive) | 3.61 µM (inactive) | 12.2 µM (inactive) | 11.6 µM (inactive) | 16.3 µM (inactive) | < 0.01 µM (active) | 6.3 µM (inactive) | 14.4 µM (inactive) | 13.8 µM (inactive) |  |
| COc1ccc(C2N(c3ccc(F)cc3)C(=O)N3C(c4ccc(OC)cc4)N(c4ccc(F)cc4)C(=O)N23)cc1 (centres undefined) | > 100 µM (inactive) | > 100 | > 100 µM (inactive) | > 100 µM (inactive) | > 100 µM (inactive) | > 100 µM (inactive) | > 100 µM (inactive) |  | > 100 µM (inactive) | > 100 µM (inactive) | > 100 µM (inactive) | > 100 µM (inactive) | > 100 µM (inactive) | > 100 µM (inactive) | > 100 µM (inactive) | > 100 µM (inactive) | > 100 µM (inactive) | > 100 µM (inactive) | > 100 µM (inactive) |
| CSc1nc(SC)c2c(C)cn(COCCOC(=O)c3ccccc3)c2n1 | > 100 µM (inactive) | > 100 | 27.3 µM (inactive) | > 100 µM (inactive) | 50.2 µM (inactive) | > 100 µM (inactive) | 82.6 µM (inactive) | 59.6 µM (inactive) | > 100 µM (inactive) | 69.5 µM (inactive) | 42.6 µM (inactive) | > 100 µM (inactive) | 83 µM (inactive) | > 100 µM (inactive) | 44.3 µM (inactive) | 41.5 µM (inactive) | > 100 µM (inactive) | > 100 µM (inactive) | > 100 µM (inactive) |
| CCC1CC(=O)N(SCC(N)C(=O)O)C1=O (centres undefined) | > 100 µM (inactive) | > 100 | > 100 µM (inactive) | > 100 µM (inactive) | > 100 µM (inactive) | > 100 µM (inactive) | > 100 µM (inactive) |  | > 100 µM (inactive) | > 100 µM (inactive) | > 100 µM (inactive) | > 100 µM (inactive) | > 100 µM (inactive) | > 100 µM (inactive) | > 100 µM (inactive) | > 100 µM (inactive) | > 100 µM (inactive) | > 100 µM (inactive) | > 100 µM (inactive) |
| Cc1ccc(/N=N/c2c(O)c(C(=O)O)cc3ccccc23)c(S(=O)(=O)O)c1 | > 100 µM (inactive) | > 100 |  | > 100 µM (inactive) | > 100 µM (inactive) | > 100 µM (inactive) | > 100 µM (inactive) | > 100 µM (inactive) | > 100 µM (inactive) | > 100 µM (inactive) | > 100 µM (inactive) | > 100 µM (inactive) | > 100 µM (inactive) | > 100 µM (inactive) | > 100 µM (inactive) | 97.1 µM (inactive) | > 100 µM (inactive) | > 100 µM (inactive) | > 100 µM (inactive) |
| C/C1=C/C(=O)O[C@@H]2C[C@@H](CC[C@H](C)/C=C\C=C\CC1)O[C@@](O)([C@@H]1CSC(=O)N1)C2 [LATRUNCULIN A] | 0.178 µM (active) | 0.52 | 0.171 µM (active) | 0.305 µM (active) | 0.075 µM (active) |  | 0.191 µM (active) | > 5.83 µM (inactive) | 0.895 µM (active) | > 10 µM (inactive) | 0.111 µM (active) | 0.44 µM (active) | 0.773 µM (active) | 1.03 µM (active) | 0.3 µM (active) | 0.116 µM (active) | 3.01 µM (inactive) | 0.484 µM (active) | 0.133 µM (active) |

— ChEMBL document CHEMBL1201862, “PubChem BioAssay data set” (2004)
